Measurements as given in US8007782B2, “Combination bacteriolytic therapy for the treatment of tumors” (priority 2003, dated 2011).

Columns and labels:
[1] = system: HCT116 human colorectal cancer cells; experiment: Tumorigenicity assay, HCT116 xenografts in nude mice; format: in vivo; settings: for Effect with C. novyi-NT / Effect alone: nude mice; for Effect alone: agent alone
Description: (§1) All animal protocols were designed in accordance with the Guide for the Care and Use of Laboratory Animals (NIH Publication 86-23) and were approved by the Johns Hopkins University Institutional Animal Care and Use Committee. Six to eight week old mice were implanted subcutaneously on one flank with 3 to 6 million cancer cells. Establishment of tumors of 150 to 500 mm3 took 8 to 21 days, depending on the cell type. C. novyi-NT spores (300×106) and anti-microtubule agents were generally administered by a single intravenous injection through the tail vein in a total volume of 300 to 500 ul phosphate-buffered saline (PBS). Quantitative assessment of tumor growth was performed by measuring subcutaneous tumor grafts (major and minor axis) using electronic calipers. Tumor volume was calculated using the equation: length×width2×0.5. Progression free survival was defined as the length of time following treatment before any increase in tumor volume was observed. Mice were considered “cured” if no tumor was evident three months after treatment. Animals were weighed at least twice a week and carefully observed for signs of toxicity every day for the first week following treatment and then twice a week thereafter. At least five mice were used for each treatment arm described in the Experimental Results.
The timing, route, and dose of agents are critical for the success of any experimental therapy. When two agents are combined, the number of variables that must be tested increases exponentially. To simplify interpretation of the comparisons between various anti-microtubule agents, pilot studies with representative drugs were performed.
Eighteen agents known to interact with microtubules were each tested in this manner in nude mice harboring xenografts of HCT116 human colorectal cancer cells. At least five mice harboring tumors of 150 to 500 mm3 in size were used for each experimental arm. Two classes of responses were noted. One type of response was characterized by a rapid hemorrhagic necrosis, observed only with agents that inhibited microtubule […] (FIG. 1A, B). The other type of response was characterized by a slow regression, observed with agents that stabilized microtubules (FIG. 2A, B).

C. novyi-NT = experiment: Quantification of C. novyi-NT in tumors by real-time PCR; format: in vivo, C. novyi-NT in mice bearing HCT116 xenografts; settings: versus spores without drug; HCT116 xenografts; SD printed +/−0.08 (HTI-286), +/−0.3 (docetaxel)
Method: Mice bearing HCT116 xenografts were treated with C. novyi-NT spores with or without HTI-286 (1.7 mg/kg) as described above. Following euthanasia 24-48 hr later, tumors were harvested, weighed, minced, and Dounce-homogenized. Genomic DNA was isolated using the Qiagen Genomic DNA Buffer Set and Genomic-tip 100/G. 25 ng of DNA was used in a PCR using the conditions described in (Vogelstein and Kinzler, 1999) The following primers specific for the C. novyi-NT phospholipase C gene were used: 5′-[…] (SEQ ID NO:1) and 5′-[…] (SEQ ID NO:2). No detectable primer dimers formed and no nonspecific amplification of mouse or xenograft genomic DNA occurred with these primers and PCR conditions. Real-time PCR was performed using an iCycler, and threshold cycle numbers were calculated using the iCycler Optical system interface software (Bio-Rad Lab, Hercules, Calif.). Averages of the threshold cycle number (Ct) of triplicate measurements per tumor were obtained, and three different tumors were studied for each treatment group. The results were expressed as the difference between the Ct of the treated tumor and the Ct of untreated controls, normalized to tumor weight.
Second, we directly tested the size of bacterial populations within tumors by measuring the number of bacteria at various times following intravenous injection of C. novyi-NT spores into mice bearing HCT116 xenografts. […]

[2] = Mortality following COBALT; format: in vivo, nude mice; settings: deaths within one week, pooled xenograft models
Description: as §1
This toxicity was observed only when the combination of C. novyi-NT spores and the drugs was administered and not with either the bacteria or the drugs alone. […] Though major tumor regressions were common, few mice died as a result of therapy (Table 2) No deaths occurred after treatment with the microtubule stabilizers plus C. novyi-NT, while 4% to 8% of mice treated with microtubule destabilizers plus C. novyi-NT died. The only other toxicity observed was transient weight loss (Table 3). Mice treated with the drugs alone lost ˜5 to 10% of their body weight within 7 days, while weight loss after treatment with C. novyi-NT plus these drugs varied from 8% to 18%. All weights recovered to pre-treatment levels within two weeks.

Structure (SMILES): CN[C@H](C(=O)N[C@H](C(=O)N(C)[C@H](/C=C(\C)C(=O)O)C(C)C)C(C)(C)C)C(C)(C)c1ccccc1 [HTI-286, N,β,β-trimethyl-L-phenylalanyl-N^1-[(1S,2E)-3-carboxy-1-isopropylbut-2-enyl]-N^1,3-dimethyl-L-valinamide]
- Effect with C. novyi-NT ([1]; 0.5 mg/kg × 1 (iv) with 3×108 C. novyi-NT spores iv): +
- Effect with C. novyi-NT ([1]; 1.0 mg/kg × 1 (iv) with 3×108 C. novyi-NT spores iv): +
- Effect with C. novyi-NT ([1]; 1.5 mg/kg × 1 (iv) with 3×108 C. novyi-NT spores iv): ++ (10% to 50% shrinkage in tumor volume relative to pre-treatment size)
- Effect with C. novyi-NT ([1]; 1.7 mg/kg × 1 (iv) with 3×108 C. novyi-NT spores iv): ++++ (>20% cures)
- Effect with C. novyi-NT ([1]; 1.9 mg/kg × 1 (iv) with 3×108 C. novyi-NT spores iv): ++++ (>20% cures)
- Effect with C. novyi-NT ([1]; 2 (2.0) mg/kg × 1 (iv) with 3×108 C. novyi-NT spores iv): ++++ (>20% cures)
- Effect alone ([1]; 0.5 mg/kg × 1 (iv)): 0
- Effect alone ([1]; 1.0 mg/kg × 1 (iv)): 0
- Effect alone ([1]; 1.5 mg/kg × 1 (iv)): +
- Effect alone ([1]; 1.7 mg/kg × 1 (iv)): +
- Effect alone ([1]; 1.9 mg/kg × 1 (iv)): ++ (10% to 50% shrinkage in tumor volume relative to pre-treatment size)
- Effect alone ([1]; 2 (2.0) mg/kg × 1 (iv)): ++ (10% to 50% shrinkage in tumor volume relative to pre-treatment size)
- hemorrhagic necrosis ([1]; single treatment): modest amount of hemorrhagic necrosis
- increase in number of C. novyi-NT bacteria in tumor when co-injected with drug (C. novyi-NT): 6.8 fold
- # dead (treatment-related deaths) ([2]; drug dose 1.7 mg/kg): 3
- dead (%) ([2]; drug dose 1.7 mg/kg): 2.9%
- # dead (treatment-related deaths) ([2]; drug dose 1.9 mg/kg): 3
- dead (%) ([2]; drug dose 1.9 mg/kg): 5.4%
- # dead (treatment-related deaths) ([2]; drug dose 2.0 mg/kg): 5
- dead (%) ([2]; drug dose 2.0 mg/kg): 10.6%
